Test results as given in ChEMBL document CHEMBL4376833, “Influence of Non-natural Cationic Amino Acids on the Biological Activity Profile of Innate Defense Regulator Peptides” (J Med Chem, 2019).
Calls of active or inactive are those of the source. No rule for the calls is given here. Non-standard residues stand in square brackets, D forms with d. Residues, ends and D or L forms follow the SMILES beside them. hArg = N=C(N)NCCCC[C@H](N)C(=O)O; Agb = N=C(N)NCC[C@H](N)C(=O)O; Agp = N=C(N)NC[C@H](N)C(=O)O; Orn = NCCC[C@H](N)C(=O)O; Dab = NCC[C@H](N)C(=O)O; Dap = NC[C@H](N)C(=O)O

Assays:
Staphylococcus aureus [1] = experiment: Antibiofilm activity against methicillin-resistant Staphylococcus aureus assessed as inhibition of biofilm formation by measuring residual biofilm growth incubated for overnight at 10-fold dilution by crystal violet staining based microtiter plate assay relative to control; assay type: functional
Staphylococcus aureus [2] = experiment: Antibiofilm activity against methicillin-resistant Staphylococcus aureus assessed as inhibition of biofilm formation incubated for overnight by crystal violet staining based microtiter plate assay; assay type: functional, organism-based
Staphylococcus aureus [3] = experiment: Antibacterial activity against methicillin-resistant Staphylococcus aureus assessed as alteration in bacterial growth incubated for overnight by microtiter plate based spectrophotometric analysis; assay type: functional, organism-based

| Molecule | residual biofilm growth (% of control) (Staphylococcus aureus [1]) | inhibition (Staphylococcus aureus [2]) | Activity (Staphylococcus aureus [3]) |
| --- | --- | --- | --- |
| CC[C@H](C)[C@H](NC(=O)[C@H](CCCNC(=N)N)NC(=O)[C@@H](NC(=O)[C@H](C)NC(=O)[C@@H](NC(=O)[C@@H](NC(=O)[C@H](CC(C)C)NC(=O)[C@H](CCCNC(=N)N)NC(=O)[C@@H](N)C(C)C)[C@@H](C)CC)C(C)C)C(C)C)C(=O)N[C@@H](Cc1c[nH]c2ccccc12)C(=O)N[C@@H](CCCCNC(=N)N)C(=O)N[C@@H](CCCNC(=N)N)C(N)=O (H-VRLIVAVRIW[hArg]R-NH2) | 10.8% | Dose-dependent effect | Active |
| CC[C@H](C)[C@H](NC(=O)[C@H](CCCNC(=N)N)NC(=O)[C@@H](NC(=O)[C@H](CCCCNC(=N)N)NC(=O)[C@@H](NC(=O)[C@@H](NC(=O)[C@H](CC(C)C)NC(=O)[C@H](CCCNC(=N)N)NC(=O)[C@@H](N)C(C)C)[C@@H](C)CC)C(C)C)C(C)C)C(=O)N[C@@H](Cc1c[nH]c2ccccc12)C(=O)N[C@@H](CCCNC(=N)N)C(=O)N[C@@H](CCCNC(=N)N)C(N)=O (H-VRLIV[hArg]VRIWRR-NH2) | 19.7% | Dose-dependent effect | Active |
| CC[C@H](C)[C@H](NC(=O)[C@H](CCCCNC(=N)N)NC(=O)[C@@H](NC(=O)[C@H](C)NC(=O)[C@@H](NC(=O)[C@@H](NC(=O)[C@H](CC(C)C)NC(=O)[C@H](CCCNC(=N)N)NC(=O)[C@@H](N)C(C)C)[C@@H](C)CC)C(C)C)C(C)C)C(=O)N[C@@H](Cc1c[nH]c2ccccc12)C(=O)N[C@@H](CCCNC(=N)N)C(=O)N[C@@H](CCCNC(=N)N)C(N)=O (H-VRLIVAV[hArg]IWRR-NH2) | 26.3% | Dose-dependent effect | Active |
| H-VRLIVAVRIKRR-NH2 | 44.7% | Dose-dependent effect | Active |
| CC[C@H](C)[C@H](NC(=O)[C@H](CCCNC(=N)N)NC(=O)[C@@H](NC(=O)[C@H](C)NC(=O)[C@@H](NC(=O)[C@@H](NC(=O)[C@H](CC(C)C)NC(=O)[C@H](CCCNC(=N)N)NC(=O)[C@@H](N)C(C)C)[C@@H](C)CC)C(C)C)C(C)C)C(=O)N[C@@H](Cc1c[nH]c2ccccc12)C(=O)N[C@@H](CCCNC(=N)N)C(=O)N[C@@H](CCNC(=N)N)C(N)=O (H-VRLIVAVRIWR[Agb]-NH2) | 39.9% | Dose-dependent effect | Active |
| CC[C@H](C)[C@H](NC(=O)[C@H](CCCNC(=N)N)NC(=O)[C@@H](NC(=O)[C@H](C)NC(=O)[C@@H](NC(=O)[C@@H](NC(=O)[C@H](CC(C)C)NC(=O)[C@H](CCCNC(=N)N)NC(=O)[C@@H](N)C(C)C)[C@@H](C)CC)C(C)C)C(C)C)C(=O)N[C@@H](Cc1c[nH]c2ccccc12)C(=O)N[C@@H](CN)C(=O)N[C@@H](CCCNC(=N)N)C(N)=O (H-VRLIVAVRIW[Dap]R-NH2) | 19.9% | Dose-dependent effect | Active |
| CC[C@H](C)[C@H](NC(=O)[C@H](CC(C)C)NC(=O)[C@H](CCCNC(=N)N)NC(=O)[C@@H](N)C(C)C)C(=O)N[C@@H](CCNC(=N)N)C(=O)N[C@@H](C)C(=O)N[C@H](C(=O)N[C@@H](CCCNC(=N)N)C(=O)N[C@H](C(=O)N[C@@H](Cc1c[nH]c2ccccc12)C(=O)N[C@@H](CCCNC(=N)N)C(=O)N[C@@H](CCCNC(=N)N)C(N)=O)[C@@H](C)CC)C(C)C (H-VRLI[Agb]AVRIWRR-NH2) | 103.2% | Dose-dependent effect | Active |
| CC[C@H](C)[C@H](NC(=O)[C@H](CCCNC(=N)N)NC(=O)[C@@H](NC(=O)[C@H](C)NC(=O)[C@@H](NC(=O)[C@@H](NC(=O)[C@H](CC(C)C)NC(=O)[C@H](CCCNC(=N)N)NC(=O)[C@@H](N)C(C)C)[C@@H](C)CC)C(C)C)C(C)C)C(=O)N[C@@H](Cc1c[nH]c2ccccc12)C(=O)N[C@@H](CCCNC(=N)N)C(=O)N[C@@H](CCCN)C(N)=O (H-VRLIVAVRIWR[Orn]-NH2) | 7.3% | Dose-dependent effect | Active |
| H-RRLIVAVRIWRR-NH2 | 12.2% | Dose-dependent effect | Active |
| H-VRLIVAVRKWRR-NH2 | 95.8% | Dose-dependent effect | Active |
| CC[C@H](C)[C@H](NC(=O)[C@H](CCCNC(=N)N)NC(=O)[C@@H](NC(=O)[C@H](C)NC(=O)[C@@H](NC(=O)[C@@H](NC(=O)[C@H](CC(C)C)NC(=O)[C@H](CCCNC(=N)N)NC(=O)[C@@H](N)CCCCNC(=N)N)[C@@H](C)CC)C(C)C)C(C)C)C(=O)N[C@@H](Cc1c[nH]c2ccccc12)C(=O)N[C@@H](CCCNC(=N)N)C(=O)N[C@@H](CCCNC(=N)N)C(N)=O (H-[hArg]RLIVAVRIWRR-NH2) | 17.1% | Dose-dependent effect | Active |
| CC[C@H](C)[C@H](NC(=O)[C@H](CCCNC(=N)N)NC(=O)[C@H](CNC(=N)N)NC(=O)[C@H](C)NC(=O)[C@@H](NC(=O)[C@@H](NC(=O)[C@H](CC(C)C)NC(=O)[C@H](CCCNC(=N)N)NC(=O)[C@@H](N)C(C)C)[C@@H](C)CC)C(C)C)C(=O)N[C@@H](Cc1c[nH]c2ccccc12)C(=O)N[C@@H](CCCNC(=N)N)C(=O)N[C@@H](CCCNC(=N)N)C(N)=O (H-VRLIVA[Agp]RIWRR-NH2) | 106.7% | Dose-dependent effect | Active |
| CC[C@H](C)[C@H](NC(=O)[C@H](CC(C)C)NC(=O)[C@H](CCCNC(=N)N)NC(=O)[C@@H](N)C(C)C)C(=O)N[C@@H](CCCCNC(=N)N)C(=O)N[C@@H](C)C(=O)N[C@H](C(=O)N[C@@H](CCCNC(=N)N)C(=O)N[C@H](C(=O)N[C@@H](Cc1c[nH]c2ccccc12)C(=O)N[C@@H](CCCNC(=N)N)C(=O)N[C@@H](CCCNC(=N)N)C(N)=O)[C@@H](C)CC)C(C)C (H-VRLI[hArg]AVRIWRR-NH2) | 110.4% | Dose-dependent effect | Active |
| CC[C@H](C)[C@H](NC(=O)[C@H](CCCNC(=N)N)NC(=O)[C@@H](NC(=O)[C@H](C)NC(=O)[C@@H](NC(=O)[C@@H](NC(=O)[C@H](CC(C)C)NC(=O)[C@H](CN)NC(=O)[C@@H](N)C(C)C)[C@@H](C)CC)C(C)C)C(C)C)C(=O)N[C@@H](Cc1c[nH]c2ccccc12)C(=O)N[C@@H](CCCNC(=N)N)C(=O)N[C@@H](CCCNC(=N)N)C(N)=O (H-V[Dap]LIVAVRIWRR-NH2) | 19.1% | Dose-dependent effect | Active |
| CC[C@H](C)[C@H](NC(=O)[C@H](CCCNC(=N)N)NC(=O)[C@@H](NC(=O)[C@H](C)NC(=O)[C@@H](NC(=O)[C@@H](NC(=O)[C@H](CC(C)C)NC(=O)[C@H](CCCNC(=N)N)NC(=O)[C@@H](N)CCNC(=N)N)[C@@H](C)CC)C(C)C)C(C)C)C(=O)N[C@@H](Cc1c[nH]c2ccccc12)C(=O)N[C@@H](CCCNC(=N)N)C(=O)N[C@@H](CCCNC(=N)N)C(N)=O (H-[Agb]RLIVAVRIWRR-NH2) | 13.6% | Dose-dependent effect | Active |
| CC[C@H](C)[C@H](NC(=O)[C@H](CCCNC(=N)N)NC(=O)[C@@H](NC(=O)[C@H](C)NC(=O)[C@@H](NC(=O)[C@@H](NC(=O)[C@H](CNC(=N)N)NC(=O)[C@H](CCCNC(=N)N)NC(=O)[C@@H](N)C(C)C)[C@@H](C)CC)C(C)C)C(C)C)C(=O)N[C@@H](Cc1c[nH]c2ccccc12)C(=O)N[C@@H](CCCNC(=N)N)C(=O)N[C@@H](CCCNC(=N)N)C(N)=O (H-VR[Agp]IVAVRIWRR-NH2) | 102.2% | Dose-dependent effect | Active |
| CC[C@H](C)[C@H](NC(=O)[C@H](CCCNC(=N)N)NC(=O)[C@@H](NC(=O)[C@H](C)NC(=O)[C@@H](NC(=O)[C@H](CCNC(=N)N)NC(=O)[C@H](CC(C)C)NC(=O)[C@H](CCCNC(=N)N)NC(=O)[C@@H](N)C(C)C)C(C)C)C(C)C)C(=O)N[C@@H](Cc1c[nH]c2ccccc12)C(=O)N[C@@H](CCCNC(=N)N)C(=O)N[C@@H](CCCNC(=N)N)C(N)=O (H-VRL[Agb]VAVRIWRR-NH2) | 98.5% | Dose-dependent effect | Active |
| CC[C@H](C)[C@H](NC(=O)[C@H](CCCNC(=N)N)NC(=O)[C@H](CCCN)NC(=O)[C@H](C)NC(=O)[C@@H](NC(=O)[C@@H](NC(=O)[C@H](CC(C)C)NC(=O)[C@H](CCCNC(=N)N)NC(=O)[C@@H](N)C(C)C)[C@@H](C)CC)C(C)C)C(=O)N[C@@H](Cc1c[nH]c2ccccc12)C(=O)N[C@@H](CCCNC(=N)N)C(=O)N[C@@H](CCCNC(=N)N)C(N)=O (H-VRLIVA[Orn]RIWRR-NH2) | 103% | Dose-dependent effect | Active |
| CC[C@H](C)[C@H](NC(=O)[C@H](CCCNC(=N)N)NC(=O)[C@@H](NC(=O)[C@H](CCN)NC(=O)[C@@H](NC(=O)[C@@H](NC(=O)[C@H](CC(C)C)NC(=O)[C@H](CCCNC(=N)N)NC(=O)[C@@H](N)C(C)C)[C@@H](C)CC)C(C)C)C(C)C)C(=O)N[C@@H](Cc1c[nH]c2ccccc12)C(=O)N[C@@H](CCCNC(=N)N)C(=O)N[C@@H](CCCNC(=N)N)C(N)=O (H-VRLIV[Dab]VRIWRR-NH2) | 52.7% | Dose-dependent effect | Active |
